Measurements published in patent US5464861A, “2-thioindoles (selenoindoles) and related disulfides (selenides) which inhibit protein tyrosine kinases and which have antitumor properties” (Warner-Lambert, priority 1993, dated 1995).
Where two headings read alike, the source gives them in different places.

Columns and labels:
[1] = target: T1, epidermal growth factor receptor tyrosine kinase (Homo sapiens, UniProt P00533); test: EGF receptor tyrosine kinase assay (P^32 incorporation in GAT); type: biochemical; conditions: for inhibition at 100 µM: EGRF-R, read-out: % Inhibition at 100 μM (EGFR TK)
T1 construct: A native 170,000 epidermal growth factor receptor-kinase complex from shed plasma membrane vesicles; endogenous in cells
Experimental: At the time of assay, membranes were solubilized in 4% Triton X-100 and glycerol. The reaction is carried out in wells of a 96-well microtiter plate in a total volume of […]. Buffer containing 20 mMHepes (pH 7.4), 15 mMMgCl2, mM MnCl2, and 0.02% BSA followed by […] of membrane protein and 150 ng of epidermal growth factor. The plates are incubated for 10 minutes at room temperature to activate the receptor kinase. […] ATP plus or minus compound are added and incubated 10 minutes at room temperature.

[2] = target: T2, human PDGF β receptor intracellular tyrosine kinase domain (Homo sapiens, UniProt P09619); test: PDGF receptor tyrosine kinase inhibition assay (P^32 incorporation in Glu-Tyr); type: biochemical; conditions: for inhibition at 100 µM: read-out: % Inhibition at 100 μM (PDGFR TK); for IC50: Table 2, PDGF-R, IC50 entries, read-out: IC50 (PDGFR TK)
T2 construct: human PDGF β receptor intracellular tyrosine kinase domain; made in house; host or cells: SF9 insect cells, recombinant baculovirus; cell lysates used
Experimental: Recombinant baculovirus containing human PDGF β receptor intracellular tyrosine kinase domain was used to infect SF9 cells to overexpress the protein, and cell lysates were used for the assay. The ability of the tyrosine kinase to phosphorylate glutamate tyrosine substrate in the presence of P^32 -ATP and inhibitor was measured by counting the incorporation of P^32 in Glu-Tyr in TCAprecipitable material.

[3] = Table 2, EGRF-R, IC50 entries, read-out: IC50 (EGFR TK)

T2 sequence (P09619 554-1106 limits assumed): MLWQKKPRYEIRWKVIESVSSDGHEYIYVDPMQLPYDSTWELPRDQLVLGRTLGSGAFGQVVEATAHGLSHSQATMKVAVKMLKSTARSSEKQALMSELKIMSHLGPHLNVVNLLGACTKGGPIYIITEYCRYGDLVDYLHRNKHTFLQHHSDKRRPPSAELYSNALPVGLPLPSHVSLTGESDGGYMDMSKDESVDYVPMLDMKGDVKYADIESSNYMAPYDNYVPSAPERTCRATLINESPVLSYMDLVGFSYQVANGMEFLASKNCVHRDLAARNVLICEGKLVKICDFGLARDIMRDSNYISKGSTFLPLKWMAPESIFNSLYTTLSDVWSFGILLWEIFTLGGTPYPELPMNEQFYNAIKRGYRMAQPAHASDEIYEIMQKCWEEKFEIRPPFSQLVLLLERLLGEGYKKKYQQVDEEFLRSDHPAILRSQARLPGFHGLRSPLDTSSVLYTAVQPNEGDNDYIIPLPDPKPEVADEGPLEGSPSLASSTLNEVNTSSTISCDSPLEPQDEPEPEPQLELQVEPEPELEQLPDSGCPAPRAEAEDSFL
T1 sequence (P00533 25-1210): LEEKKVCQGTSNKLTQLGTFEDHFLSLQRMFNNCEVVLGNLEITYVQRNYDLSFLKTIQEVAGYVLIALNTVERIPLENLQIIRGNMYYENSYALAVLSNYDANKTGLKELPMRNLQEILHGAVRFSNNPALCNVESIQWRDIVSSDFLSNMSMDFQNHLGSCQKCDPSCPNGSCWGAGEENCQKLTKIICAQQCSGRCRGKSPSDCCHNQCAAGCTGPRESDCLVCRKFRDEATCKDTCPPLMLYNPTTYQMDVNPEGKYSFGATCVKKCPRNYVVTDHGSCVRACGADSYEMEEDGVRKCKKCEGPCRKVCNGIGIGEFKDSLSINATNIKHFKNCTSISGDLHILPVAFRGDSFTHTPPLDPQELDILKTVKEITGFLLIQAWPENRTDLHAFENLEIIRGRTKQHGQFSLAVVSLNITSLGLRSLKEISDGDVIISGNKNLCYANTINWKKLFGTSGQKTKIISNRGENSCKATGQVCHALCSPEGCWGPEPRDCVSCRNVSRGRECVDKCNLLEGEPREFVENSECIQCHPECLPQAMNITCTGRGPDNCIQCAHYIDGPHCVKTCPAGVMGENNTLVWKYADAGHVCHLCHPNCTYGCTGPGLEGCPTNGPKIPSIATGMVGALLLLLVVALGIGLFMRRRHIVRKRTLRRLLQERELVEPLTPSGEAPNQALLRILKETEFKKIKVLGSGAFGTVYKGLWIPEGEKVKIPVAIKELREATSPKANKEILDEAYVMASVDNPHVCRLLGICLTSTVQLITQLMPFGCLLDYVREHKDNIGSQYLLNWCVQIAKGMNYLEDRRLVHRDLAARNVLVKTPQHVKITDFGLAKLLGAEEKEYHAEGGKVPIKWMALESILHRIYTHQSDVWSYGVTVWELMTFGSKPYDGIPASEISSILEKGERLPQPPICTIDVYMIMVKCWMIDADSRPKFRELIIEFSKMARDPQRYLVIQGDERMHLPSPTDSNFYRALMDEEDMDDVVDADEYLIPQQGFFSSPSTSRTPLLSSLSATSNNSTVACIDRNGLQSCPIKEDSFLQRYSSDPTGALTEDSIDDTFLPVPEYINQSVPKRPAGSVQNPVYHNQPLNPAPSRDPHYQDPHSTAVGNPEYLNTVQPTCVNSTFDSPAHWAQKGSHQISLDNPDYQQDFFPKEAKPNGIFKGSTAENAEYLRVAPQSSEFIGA
T1 sequence (P01133 971-1023 partner limits assumed): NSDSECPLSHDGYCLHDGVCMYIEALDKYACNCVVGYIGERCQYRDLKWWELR

Structure (SMILES) | IC50 [1, 3] | inhibition at 100 µM ([2]; at 100 μM, PDGF-R) | inhibition at 100 µM [1] | also measured
Cn1c(SSc2c(C(=O)Nc3ccccc3C(=O)O)c3ccccc3n2C)c(C(=O)Nc2ccccc2C(=O)O)c2ccccc21 [Compound 109, 2,2'-dithiobis[N-(2'-carboxy)phenyl-1-methylindolyl-3-carboxamide]] | 47 µM | 8% | – | –
Cn1c(SSc2c(C(=O)Nc3ccccc3)c3cc(C#N)ccc3n2C)c(C(=O)Nc2ccccc2)c2cc(C#N)ccc21 [Compound 88, 2,2'-dithiobis[N-phenyl-5-cyano-1-methylindolyl-3-carboxamide]] | 54 µM | 51% | – | –
COC(=O)CCCC1C(=S)N(C)c2ccccc21 (stereo not shown) [Compound 18, methyl 4-(1-methyl-2-thioxo-3-indolyl)butanoate] | – | 9% | 2% | –
CC(=O)Oc1cccc2c1c(C(=O)Nc1ccccc1)c(SSc1c(C(=O)Nc3ccccc3)c3c(OC(C)=O)cccc3n1C)n2C [Compound 90, 2,2'-dithiobis [N-phenyl 4-acetoxy-1-methylindolyl-3-carboxamide]] | 26 µM | – | – | IC50 [2]: 36.5 µM
Cn1c(SSc2c(C(=O)c3ccccc3)c3ccccc3n2C)c(C(=O)c2ccccc2)c2ccccc21 [Compound 100, bis[3-benzoyl-1-methylindole-(2)]disulfide] | – | – | – | inhibition at 100 µM [2]: 23%
COC(=O)CC1C(=S)Nc2ccccc21 (stereo not shown) [Compound 3, methyl 2-(2-thioxo-3-indolinyl)acetate] | – | 8.6% | 43% | –
COC(=O)CCCc1c(SSc2[nH]c3ccccc3c2CCCC(=O)OC)[nH]c2ccccc12 [Compound 67, bis[methylindolyl-3-butanoate-(2)]-disulfide] | – | 2% | 18% | –
CN(C)C(=O)c1c(SSc2c(C(=O)N(C)C)c3ccccc3n2C)n(C)c2ccccc12 [Compound 119, 2,2'-dithiobis[N,N-dimethyl-1-methylindolyl-3-carboxamide]] | 21.2 µM | 73% | – | –
Cn1c(SSc2c(C(N)=O)c3ccccc3n2C)c(C(N)=O)c2ccccc21 [Compound 118, 2,2'-dithiobis[1-methylindolyl-3-carboxamide]] | 4.7 µM | 78% | – | –
Cn1c(SSc2c(C(=O)Nc3ccccc3)c3cc(F)ccc3n2C)c(C(=O)Nc2ccccc2)c2cc(F)ccc21 [Compound 87, 2,2'-dithiobis [N-phenyl-5-fluoro-1-methylindolyl-3-carboxamide]] | – | 44% | 34% | –
Cn1c(SSc2c(C(=O)Nc3cccnc3)c3ccccc3n2C)c(C(=O)Nc2cccnc2)c2ccccc21 [Compound 117, 2,2'-dithiobis [N-(3-pyridyl) 1-methylindolyl-3-carboxamide]] | – | – | 25% | IC50 [2]: 4.2 µM
O=C(CC1C(=S)Nc2ccccc21)NCc1ccccc1 (stereo not shown) [Compound 6, N-benzyl (2-thioxo-3-indolinyl) acetamide] | 25 µM | 8.5% | – | –
COC(=O)c1ccc(C(=O)C2C(=S)N(C)c3ccccc32)cc1 (stereo not shown) [Compound 26, 3-(4'-carbomethoxybenzoyl) -1-methyl-2-indolinethione] | – | – | – | inhibition at 100 µM [2]: 5%
Cn1c(SSc2c(C(=O)NCC(O)CO)c3ccccc3n2C)c(C(=O)NCC(O)CO)c2ccccc21 (stereo not shown) [Compound 114, 2,2'-dithiobis [N-(2,3-dihydroxypropyl)-1-methylindolyl-3-carboxamide]] | 42.9 µM | – | – | IC50 [2]: 7 µM
O=C(CCCc1c(SSc2[nH]c3ccccc3c2CCCC(=O)NCc2ccccc2)[nH]c2ccccc12)NCc1ccccc1 [Compound 69] | – | 8.9% | 55.6% | –
Cn1c(SSc2c(C(=O)Nc3ccncc3)c3ccccc3n2C)c(C(=O)Nc2ccncc2)c2ccccc21 [Compound 116, 2,2'-dithiobis[N-(4-pyridyl)-1-methylindolyl-3-carboxamide]] | – | – | 4% | IC50 [2]: 7.9 µM
Cn1c(SSc2c(C(=O)NCC(=O)O)c3ccccc3n2C)c(C(=O)NCC(=O)O)c2ccccc21 [Compound 112, 2,2'-dithiobis[N-carboxymethyl1-methylindolyl-3-carboxamide]] | 10 µM | 69% | – | –
Cn1c(SSc2c(C(=O)Nc3ccccc3)c3cc(C(F)(F)F)ccc3n2C)c(C(=O)Nc2ccccc2)c2cc(C(F)(F)F)ccc21 [Compound 84, 2,2-dithiobis [N-phenyl-1-methyl-5-(trifluoro-methyl)indolyl-3-carboxamide]] | – | 22% | 35% | –
Cn1c(SSc2c(C(=O)Nc3ccccc3)c3cc([N+](=O)[O-])ccc3n2C)c(C(=O)Nc2ccccc2)c2cc([N+](=O)[O-])ccc21 [Compound 86, 2,2'-dithiobis [N-phenyl-1-methyl-5-nitroindolyl-3-carboxamide]] | – | – | – | IC50 [1]: 4.9 µM; inhibition at 100 µM [2]: 5%
O=C(CCc1c(SSc2[nH]c3ccccc3c2CCC(=O)NCCc2ccccc2)[nH]c2ccccc12)NCCc1ccccc1 [Compound 54, 2,2'-dithiobis[N-(2-phenylethyl) -3-(3-indolyl)propanamide]] | 29 µM | 20.6% | – | –

Structure (SMILES) | IC50 [1, 3] | inhibition at 100 µM ([2]; at 100 μM, PDGF-R) | inhibition at 100 µM [1] | also measured
CONC(=O)CCc1c(SSc2[nH]c3ccccc3c2CCC(=O)NOC)[nH]c2ccccc12 [Compound 52] | 68.2 µM | 18.3% | – | –
Cn1c(SSc2c(C(=O)Nc3ccc(C(=O)O)cc3)c3ccccc3n2C)c(C(=O)Nc2ccc(C(=O)O)cc2)c2ccccc21 [Compound 105, 2,2'-dithiobis [N-(4'-carboxy)phenyl-1-methylindolyl-3-carboxamide]] | 16.9 µM | 33% | – | –
Cn1c(SSc2c(C(=O)Nc3ccccn3)c3ccccc3n2C)c(C(=O)Nc2ccccn2)c2ccccc21 [Compound 122, 2,2'-dithiobis [N-(2'-pyridyl)-1-methylindole-3-carboxamide]] | – | – | 51% | –
Cc1ccc2c(CCC(=O)O)c(SSc3[nH]c4cc(C)ccc4c3CCC(=O)O)[nH]c2c1 [Compound 43, bis[methylindolyl-3-propanoate-(2)]disulfide] | 2.9 µM | – | – | –
Cc1cccc2c(CCC(=O)O)c(SSc3[nH]c4c(C)cccc4c3CCC(=O)O)[nH]c12 [Compound 45, bis[7-methylindolyl-3-propanoic acid-(2)] disulfide] | 1.6 µM | – | – | –
COC(=O)c1ccc(CNC(=O)CCc2c(SSc3[nH]c4ccccc4c3CCC(=O)NCc3ccc(C(=O)OC)c(O)c3)[nH]c3ccccc23)cc1O [Compound 57] | – | 14.5% | 46% | –
CC(=O)OC(Cc1c(SSc2[nH]c3ccccc3c2CC(OC(C)=O)C(=O)NCc2ccccc2)[nH]c2ccccc12)C(=O)NCc1ccccc1 (stereo not shown) [Compound 63] | 60 µM | – | – | –
NC(=O)CCc1c(SSc2[nH]c3ccccc3c2CCC(N)=O)[nH]c2ccccc12 [Compound 50] | 16 µM | 62.6% | – | –
COc1ccc2c(c1)c(C(=O)Nc1ccccc1)c(SSc1c(C(=O)Nc3ccccc3)c3cc(OC)ccc3n1C)n2C [Compound 80, bis[N-phenyl 5-methoxy-1-methylindolyl-3-carboxamide-(2)]disulfide] | – | 16% | 0% | –
Cc1cccc2c(C(=O)Nc3ccccc3)c(SSc3c(C(=O)Nc4ccccc4)c4cccc(C)c4n3C)n(C)c12 [Compound 78, bis [N-phenyl 1,7-dimethyl indolyl-3-carboxamide-(2)]disulfide] | – | 7% | 27% | –
CC(=O)NC(Cc1c(SSc2[nH]c3ccccc3c2CC(NC(C)=O)C(=O)NCc2ccccc2)[nH]c2ccccc12)C(=O)NCc1ccccc1 (racemic) [Compound 60] | – | – | 53% | –
Cn1c(SSc2c(C(=O)Nc3ccccc3)c3cc(Br)ccc3n2C)c(C(=O)Nc2ccccc2)c2cc(Br)ccc21 [Compound 89, 2,2'-dithiobis[N-phenyl-5-bromo-1-methylindolyl-3-carboxamide]] | 11.4 µM | 3% | – | –
COC(=O)c1cccc(NC(=O)c2c(SSc3c(C(=O)Nc4cccc(C(=O)OC)c4)c4ccccc4n3C)n(C)c3ccccc23)c1 [Compound 106, 2,2'-dithiobis [N-(3'-carbomethoxy)phenyl-1-methylindolyl-3-carboxamide]] | – | – | 34% | –
CN(C)C(=O)CCc1c(SSc2[nH]c3ccccc3c2CCC(=O)N(C)C)[nH]c2ccccc12 [Compound 53] | 4.2 µM | – | – | –
COC(=O)CCCC1C(=S)Nc2ccccc21 (stereo not shown) [Compound 17, methyl 4-(2-thioxo-3-indolinyl)butanoate] | – | – | 12.5% | –
CN1C(=S)C(C(=O)c2ccc(C(=O)O)cc2)c2ccccc21 (stereo not shown) [Compound 25, 3-(4'-carboxybenzoyl)-1-methyl-2-indolinethione] | 8.7 µM | – | – | –
O=C(Nc1ccccc1)c1c(SSc2[nH]c3ccccc3c2C(=O)Nc2ccccc2)[nH]c2ccccc12 [Compound 126, 2,2'-dithiobis [N-phenylindolyl-3-carboxamide]] | – | – | 60% | –
Cn1c(S)c(C(=O)Nc2ccccc2)c2cccnc21 [Compound 19, N-phenyl (1-methyl-7-aza-2-thioxo-3-indolinyl)carboxamide] | – | – | 10% | –
Cn1c(SSc2c(C(=O)Nc3ccccc3)c3cccc(Cl)c3n2C)c(C(=O)Nc2ccccc2)c2cccc(Cl)c21 [Compound 74, bis [N-phenyl-7-chloro-1-methylindolyl-3-carboxamide-(2)]disulfide] | – | – | 23% | –
